Test results reported in publication PMC5600443 (Biochemistry and Biophysics Reports, 2016).
“And” between values parts separate entries of the source, which are not always exact repeats. Equal entries are not always repeated.

Key:
Format in all cases: cell-based
[1] = molecular target: rat α1/β1 (Rα1/β1) Na^+,K^+pump (Rattus norvegicus, UniProt P06685); details: for Efficiency coefficient A = 100*IC50 Na,K pump/IC50 proliferation, Rα1/β1 pump: Rα1/β1 pump IC50 versus RH-35 cell proliferation IC50
[2] = molecular target: rat α2/β1 (Rα2/β1) Na^+,K^+pump (Rattus norvegicus, UniProt P06686); details: Rα2/β1 pump IC50 versus RH-35 cell proliferation IC50
[3] = system: RH-35 rat liver cancer cell line; assay: MTT assay, inhibition of proliferation of RH-35 rat liver cancer cells; details: read-out: Cell proliferation RH-35 IC50, rat RH-35 cells, 72 h, average of 3 independent experiments + SEM

Bufalin-3-MeON-arabinopyranoside [BAP]
Efficiency coefficient A = 100*IC50 Na,K pump/IC50 proliferation, Rα1/β1 pump [1]: 0.10 | Efficiency coefficient A = 100*IC50 Na,K pump/IC50 proliferation, Rα2/β1 pump [2]: 0.16 | IC50 [3]: ~67.2 µM and 67.2 µM

CC12CCC(OC(=O)NCCCn3ccnc3)CC1CCC1C2CCC2(C)C(c3ccc(=O)oc3)CCC12O (centres unmarked) [BF238, Bufalin-3-yl [3-(1h-imidazol-1-yl)propyl]carbamate]
Effect on Rα1/β1 pump current ([1]; 0.05 µM drug): hardly affected | Inhibition of Rα1/β1 pump current ([1]; 0.50 µM drug): more than 50% | Efficiency coefficient A = 100*IC50 Na,K pump/IC50 proliferation, Rα1/β1 pump [1]: 0.88 | Efficiency coefficient A = 100*IC50 Na,K pump/IC50 proliferation, Rα2/β1 pump [2]: 2.64 | IC50 [3]: 37.4 ± 3.1 µM

CNCCCNC(=O)O[C@H]1CC[C@@]2(C)[C@H](CC[C@@H]3[C@@H]2CC[C@]2(C)[C@@H](c4ccc(=O)oc4)CC[C@]32O)C1 [BF601, Bufalin-3-yl [3-(methylamino)propyl]carbamate]
Efficiency coefficient A = 100*IC50 Na,K pump/IC50 proliferation, Rα1/β1 pump [1]: 0.35 | Efficiency coefficient A = 100*IC50 Na,K pump/IC50 proliferation, Rα2/β1 pump [2]: 0.92 | IC50 [3]: ~30.8 µM and 30.8 µM
